Values of other authors in PMC6916687 (Drug Design, Development and Therapy, 2019).
pIC50: −log10 of the molar value.

Experiments:
[1] = test system: QGY-7703 cells; conditions: read-out: IC50 for QGY-7703 cells
[2] = test system: MDA-MB-231 cells; conditions: read-out: IC50 for MDA-MB-231 cells

| pIC50 [1] | pIC50 [2] | SMILES |
| --- | --- | --- |
| 5.20 |  | O=c1c2ccccc2oc2cc(-c3ccccc3)ccc12 [3-phenylxanthone] |
|  | 4.32 | Cc1ccc2c(=O)c3cccc(CC(=O)O)c3oc2c1C [DMXAA, 5,6-dimethylxanthone-4-acetic acid] |
